Experimental findings from paper PMC6325233, “A Novel Actin Binding Drug with In Vivo Efficacy” (Antimicrobial Agents and Chemotherapy, 2018) are described below.

Entries after “also recorded” stand apart in the source; their conditions may differ.

One experiment deals with S. pombe. Kind of experiment: FM-464 uptake (endocytosis) assay. The class given is cell-based. Particulars: 0.5 μg/ml (0.5× MIC) and 1 μg/ml (1× MIC), 30 min, 30°C. The method, then:
The hyphal induction assay was performed as previously reported with minor modifications ([58]). Candida albicans strain ATCC 66027 was grown in yeast extract-peptone-dextrose (YPD) medium at 30°C for 48 h to reach saturation with an OD600 of 17 to 19. Cells were diluted into fresh Spider medium (1% nutrient broth, 1% mannitol, 0.2% K2HPO4) to obtain an OD600 of 0.05 (∼0.5 × 10^6 to 1 × 10^6 cells/ml) and incubated at 37°C with shaking to induce hyphal formation. Immediately prior to the 37°C incubation, occidiofungin (1 µg/ml; 0.5× MIC) or an equal volume of DMSO was added to the cultures. Aliquots were removed at 0-, 1-, 2-, 4-, and 6-h time points and fixed in 3.7% formaldehyde for later analysis of cell morphology by light microscopy. More than 200 cells were examined for each time point, and cells were scored as having either a yeast or filamentous form, with cells showing any outgrowth considered filamentous. DNA segregation assays were performed using a mid-log culture of S. cerevisiae (BY4743, diploid) and C. albicans (ATCC 66027). The cultures were diluted in fresh YPD medium to obtain OD600s of 0.095 (∼1 × 10^6 to 1.5 × 10^6 cells/ml) and 0.05 (0.5 × 10^6 to 0.8 × 10^6 cells/ml), respectively. […] Images were viewed using a Nikon 50i fluorescence microscope with a 100× oil immersion objective and DAPI filter. Cells were scored on the basis of bud morphology and DNA location. […]

Experiment [1] has as its system rabbit skeletal muscle G-actin. Kind of experiment: Affinity pulldown with biotinylated alkyne-OF and streptavidin beads. The note with it: 24 μg G-actin, 8 μg alkyne-OF, azide-biotin, streptavidin beads, silver stain. The format is binding. The method, then:
(§1) Purified rabbit skeletal muscle filamentous actin (catalog number AKF99) and G-actin (catalog number AKL95) were purchased from Cytoskeleton, Inc. Actin was reconstituted in Milli-Q water to achieve a stock concentration of 0.4 mg/ml in a buffer that consisted of 5 mM Tris-HCl (pH 8.0), 0.2 mM CaCl2, 0.2 mM ATP, 2 mM MgCl2, and 5% (wt/vol) sucrose as directed by the supplier. This solution was stored at −80°C in 50-μl aliquots until use. Immediately before use, each aliquot was thawed by placing it in a 37°C water bath for 5 min and then at room temperature. For all studies, 24 μg of F- or G-actin was used with 8 μg alkyne-OF. F-actin filaments were reacted with native occidiofungin for 15 min at room temperature at molar ratios of 1:10 (24 μg actin to 8 μg native occidiofungin) and 1:5 (24 μg actin to 4 μg native occidiofungin). As per the manufacturer’s instructions, Acti-stain 670 phalloidin (Cytoskeleton, Inc.) was used as a control in an in vitro actin filament binding study. Actin filaments treated with DMSO (solvent blank negative control) were stained and observed for comparison. The actin filaments were visualized on an Olympus FV1000 confocal microscope. Pulldown assays were performed using alkyne-OF with azide-biotin (Click-iT protein reaction buffer kit; Thermo Fisher Scientific), according to the manufacturer’s instructions. The proteins captured by biotinylated alkyne-OF on streptavidin beads were eluted by boiling in 50 µl of SDS sample loading buffer. The sample was electrophoresed through a 12% SDS gel, and protein bands were visualized by silver staining (Pierce Silver stain kit; Thermo Fisher Scientific) according to the manufacturer’s protocol. F- and G-actin treated with DMSO and native occidiofungin were used as the controls.

The target of experiment [2] is T1, rabbit skeletal muscle F-actin (Oryctolagus cuniculus, UniProt P68135).
T1 construct: Purified rabbit skeletal muscle filamentous actin (catalog number AKF99); purchased Cytoskeleton, Inc. AKF99; host or cells: rabbit skeletal muscle (tissue-purified)
Described as above. The class given is binding. Particulars: 24 μg F-actin, 8 μg alkyne-OF, azide-biotin, streptavidin beads, silver stain. The method, then: as §1

For the substance occidiofungin, the “effect on endocytosis (FM-464-stained vesicles)” value with S. pombe was “concentration-dependent reductions in stained endocytic vesicles; also recorded: decreased in a dose-dependent fashion”. Moreover, the “copurification/binding with G-actin” value in experiment [1] was “directly bind to F- or G-actin”; in experiment [1] (listed as native OF), “actin was not detected in the control lanes”. Also, the “copurification/binding with F-actin” value in experiment [2] was “directly bind to F- or G-actin”; in experiment [2] (listed as native OF) it was “actin was not detected in the control lanes”.
